For data set [1], the system named is WSN-Ren luciferase virus (influenza A/WSN/33) in MDCK-HA cells. Nature of the data set: microbe, parasite or virus in culture. In kind it is cell-based, influenza A/WSN/33 (H1N1).
Data set [2] deals with wild type influenza A/WSN/33 virus in A549 cells. Nature of the data set: qRT-PCR of viral NP mRNA, A549 cells infected with wild type WSN virus. In kind it is cell-based, influenza A/WSN/33 (H1N1). As to conditions: 10 μM, 1 μM and 0.1 μM.
Data set [3] in a line: 1D proton NMR solubility experiment. The data set is classed as physicochemical. As to conditions: PBS with 2% DMSO, aqueous buffer, kinetic from dmso stock.
Data set [4] deals with recombinant neuraminidase N1 (A/California/04/09) (Influenza A virus (A/California/04/2009(H1N1)), UniProt C3W5S3). The experiment in a line: Fluorescent neuraminidase assay. The data set is classed as biochemical, influenza A/California/04/09. The conditions noted are these: serial dilutions from 100 μM to 6.4 nM.
Data set [5] deals with WSN-Ren luciferase virus in MDCK-HA cells. In kind it is cell-based, influenza A/WSN/33 (H1N1).
The subject of a further data set is panel of 13 kinases. Nature of the data set: Kinase panel inhibition. The data set is classed as biochemical. The conditions noted are these: concentrations up to 5 μM.

We go through six compounds from article PMC3769975 (ChemMedChem, 2012).

≈ marks a conversion by molar mass, not a printed value. Like-named read-outs stand apart in the source and are kept apart here. A value given as a limit tells only on which side of the number the result lay.

Take `Cc1cc2cc(CNCCO)c(=O)[nH]c2cc1C` [Compound 6, 3-((2-hydroxyethylamino)methyl)-6,7-dimethylquinolin-2(1H)-one]: the “anti-influenza activity (in words, SAR discussion)” value (shortened to “anti-influenza activity”) in data set [1] is given as “did not elicit any anti-influenza activity”. This compound registered an EC50 in data set [1] (Influenza A virus, WSN) greater than 100000 nM.
In data set [1] (Influenza A virus, WSN), `CCC(C)(C)n1nnnc1C(C(C)C)N(CCO)Cc1cc2cc(C)c(C)cc2[nH]c1=O` (stereo not shown) [Compound 7, 3-(((2-hydroxyethyl)(2-methyl-1-(1-tert-pentyl-1H-tetrazole-5-yl)propyl)amino)methyl)-6,7-dimethylquinolin-2(1H)-one] returned an EC50 of 45.6 nM. The cytotoxicity profile result in the data set with MDCK-HA cell line is “good cytotoxicity profile”. For the same compound, in data set [2], the “viral NP mRNA expression levels” value was “reduced NP mRNA expression levels in a dose dependent matter”. This compound had a solubility in data set [3] of 10 to 15 µM (≈ 4.41 to 6.61 µg/mL). For the same compound, the activity against neuraminidase result in data set [4] is given as “ineffective”. Also, the “viral NP mRNA expression compared to DMSO treated controls” value in data set [5] was “reduction of the NP mRNA expression”. Moreover, the “viral replication (NP mRNA) after 26 hour incubation” value in data set [5] (10 μM) is “minimal viral replication”. The “inhibition of selected kinases” value in the data set on panel of 13 kinases is given as “did not significantly inhibit”.
Regarding `CCC(C)(C)n1nnnc1C(NCc1cc2cc(C)c(C)cc2[nH]c1=O)C(C)C` (stereo not shown) [Compound 23, 6,7-dimethyl-3-(((2-methyl-1-(1-(tert-pentyl)-1H-tetrazole-5-yl)propyl)amino)methyl)quinolin-2(1H)-one], the “anti-influenza activity” value in data set [1] is on record as “inactivation”. Besides, the EC50 in data set [1] (Influenza A virus, WSN) was greater than 100000 nM.
The corresponding values for `Cc1cc2cc(CNC(=O)c3ccccc3)c(=O)[nH]c2cc1C` [Compound 24, N-((6,7-dimethyl-2-oxo-1,2-dihydroquinolin-3-yl)methyl)benzamide] are “not sufficient” and greater than 100000 nM.
In the case of `CCC(C)(C)n1nnnc1C(C(C)C)N(Cc1cc2cc(C)c(C)cc2[nH]c1=O)CC1CCCO1` (stereo not shown) [Compound 25, 6,7-dimethyl-3-(((2-methyl-1-(1-(tert-pentyl)-1H-tetrazol-5-yl)propyl)((tetrahydrofuran-2-yl)methyl)amino)methyl)quinolin-2(1H)-one], in data set [1], the midpoint of the response, the EC50, lay at 2950 nM and the “anti-influenza activity” value is on record as “low micromolar range”. The compound also gave an EC50 in data set [1] (Influenza A virus, WSN) of roughly 3000 nM.
As for `CCOC(=O)C1=C[C@@H](OC(CC)CC)[C@H](NC(C)=O)[C@@H](N)C1` [oseltamivir phosphate, reference compound], the “potency relative to best compounds of Table 1” value in data set [1] was “roughly 100 fold”. This compound also gave an EC50 in data set [1] (Influenza A virus, WSN) of roughly 0.5 nM.
